According to US20210401931A1, “METHODS AND MATERIALS FOR TREATING CANCER” (Mayo Foundation for Medical Education and Research, priority 2018, published 2021):
Ends that are not written are not given here.

Assays:
PD-L1 = PD-L1 expression (western blot, RT-qPCR) in PC-3 cells expressing RL peptide; format: cell-based, human; settings: for gamma irradiation-induced upregulation of PD-L1: 12 Gy
Method: FIGS. 5A-K. The importance of S249/T252 phosphorylation of RB in regulation of PD-L1 expression. (A, B) PC-3 cells were infected with lentivirus expressing control shRNA, RB1-specific, p65-specific, or both shRNA. 48 hours post puromycin selection, cells were harvested for western blotting (A) and RT-qPCR analysis (B). All data were shown as mean values±SD (n=3). * P<0.05, ** P<0.01, *** P<0.001. (C, D) DU145 cells were transfected with indicated plasmids. 24 hours after transfection, cells were harvested for western blotting analysis (C) and RT-qPCR analysis (D). All data were shown as mean values±SD (n=3). * P<0.05, ** P<0.01, *** P<0.001. (E, F) DU145 cells were transfected with indicated plasmids. 24 hours after transfection, cells were harvested for western blotting analysis (E) and RT-qPCR analysis (F). All data were shown as mean values±SD (n=3). * P<0.05, ** P<0.01, *** P<0.001. (G, H) PC-3 cells were infected with lentivirus expressing control shRNA or p65-specific shRNAs. After 24 hours, cells were further transfected with empty vector or SFB-RL-S249D/T252D for another 24 hours followed by western blot analysis (G) and RT-qPCR analysis (H). All data were shown as mean values±SD (n=3). * P<0.05, ** P<0.01, *** P<0.001. (I) Representative images of IHC of anti-PD-L1 and anti-pRB-S249/T252 antibodies of TMA (n=145 TMA elements) tissue sections. Scale bars were shown as indicated. (J) Heatmap showing IHC score of PD-L1 and pRB-S249/T252 in TMA. (K) Correlation analysis of IHC score for expression of PD-L1 and pRB-S249/T252 polypeptides in prostate cancer patient specimens (n=145 TMA elements). Pearson's product-moment correlation co-efficiency and the P values were also shown.
FIGS. 6A-J. The small S249/T252 phosphorylation-mimicking polypeptide of RB blocks irradiation-induced PD-L1 expression and inhibits cancer immune evasion. (A, B) PC-3 cells were infected with lentivirus expressing control shRNA or p65-specific or shRNA. 24 hours after puromycin selection, cells were treated with or without gamma irradiation (IR) (12 Gy). 48 hours after IR treatment, cells were harvested for western blotting analysis (A) and RT-qPCR analysis (B). All data were shown as mean values±SD (n=3). * P<0.05, ** P<0.01, *** P<0.001. (C, D) PC-3 cells were treated with without gamma irradiation (12 Gy). Cells were harvested at the indicated time point for western blotting analysis (C) and RT-qPCR analysis (D). All data were shown as mean values±SD (n=3). * P<0.05, ** P<0.01, *** P<0.001. (E) Western blot analysis of WCL and co-IP samples in PC-3 cells 48 hours after treated with or without gamma irradiation (12 Gy). (F) ChIP-qPCR analysis of p65 binds at the PD-L1 promotor in PC-3 cells 48 hours after treated with or without gamma irradiation (12 Gy). All data were shown as mean values±SD (n=3). * P<0.05, ** P<0.01, *** P<0.001. (G, H) PC-3 cells were treated with or without gamma irradiation (12 Gy). 24 hours post treatment, cells were transfected with indicated constructs. 24 hours after transfection, cells were harvested for western blotting analysis (G) and RT-qPCR analysis (H). All data were shown as mean values±SD (n=3). * P<0.05, ** P<0.01, *** P<0.001. (I) PTEN-CaP8 mouse prostate cancer cells were transduced with lentivirus for control vector or the small RB S249/T252-phosphorylation-mimicking polypeptide RL-S249D/T252D. 72 hours after purimycin selection, 5×10^6 control or RL-S249D/T252D-expressing cells were injected subcutaneously into C57BL/6 mice. Mice (n=8/group) were treated with gamma irradiation (12 Gy) or mock treated, and with anti-PD-L1 (200 μg) or non-specific IgG for 45 days. (J) The absolute number of CD45^+CD8^+ T cells, CD45^+CD4^+ T cells, and CD11b^+Gr1^+ myeloid cells of implanted PTEN-CaP8 in tumors treated with indicated agents was analyzed by FACS. All data were shown as mean values±SD (n=8). ns, not significant, *** P<0.001.
Total RNA was isolated using TRIzol reagent (Thermo Fisher Scientific). […]

PTEN-CaP8 tumors = assay: FACS of tumor-infiltrating immune cells in PTEN-CaP8 tumors; format: in vivo, mouse; settings: 12 Gy
Method: FIGS. 6A-J. The small S249/T252 phosphorylation-mimicking polypeptide of RB blocks irradiation-induced PD-L1 expression and inhibits cancer immune evasion. (A, B) PC-3 cells were infected with lentivirus expressing control shRNA or p65-specific or shRNA. 24 hours after puromycin selection, cells were treated with or without gamma irradiation (IR) (12 Gy). 48 hours after IR treatment, cells were harvested for western blotting analysis (A) and RT-qPCR analysis (B). All data were shown as mean values±SD (n=3). * P<0.05, ** P<0.01, *** P<0.001. (C, D) PC-3 cells were treated with without gamma irradiation (12 Gy). Cells were harvested at the indicated time point for western blotting analysis (C) and RT-qPCR analysis (D). All data were shown as mean values±SD (n=3). * P<0.05, ** P<0.01, *** P<0.001. (E) Western blot analysis of WCL and co-IP samples in PC-3 cells 48 hours after treated with or without gamma irradiation (12 Gy). […] (J) The absolute number of CD45^+CD8^+ T cells, CD45^+CD4^+ T cells, and CD11b^+Gr1^+ myeloid cells of implanted PTEN-CaP8 in tumors treated with indicated agents was analyzed by FACS. […]
For flow cytometry analysis of mouse tissue samples, tumors were cut into small pieces and digested with 2 mg/mL collagenase (Sigma) in DMEM for 1 hour at 37° C. […] After incubated with antibody for 30 minutes, cells were washed with PBS and analyzed on a flow cytometer.

RL-S249D/T252D: S249/T252 phospho-mimicking R-Linker (RL) peptide: fragment of RB-N containing 21 amino acids surrounding S249/T252, expressed SFB-tagged or by lentivirus (NGDPRDPRRGQNRSARIAKQL; also: expressed SFB-tagged (tag left off))
PD-L1 expression in p65-proficient cells (PD-L1; PC-3 cells transfected with SFB-tagged peptide, 24 hours): largely inhibited
PD-L1 expression (FIG. 6G) (PD-L1; PC-3 cells transfected with peptide construct): almost completely blocked
PD-L1 expression in p65-depleted cells (PD-L1; PC-3 cells with p65 shRNA, transfected with SFB-tagged peptide, listed as RL-S249/T252D peptide): little or no effect
gamma irradiation-induced upregulation of PD-L1 (PD-L1; PC-3 cells, ectopic expression of peptide): largely, but not completely blocked
gamma irradiation-induced upregulation of PD-L1 (PD-L1; PC-3 cells, ectopic expression of peptide, listed as RL-S249/T252D): largely diminished
PD-L1 basal level (PD-L1; PC-3 cells, ectopic expression of peptide, no irradiation): decreased
CD11b+Gr1+ myeloid cells in tumors, agent combined with irradiation (PTEN-CaP8 tumors): sharp decrease
CD45+CD8+ and CD45+CD4+ T cell infiltration in tumors, agent combined with irradiation (PTEN-CaP8 tumors): dramatic increase
